# Target: T1, human LPA1 (Homo sapiens, UniProt Q92633)
# T1 construct: the full-length cDNA for human LPA1 was obtained by PCR of the reverse transcription reaction; expressed in transfected cells
# Assay: LPA1 calcium flux assay
# Assay type: cell-based
# Settings: human LPA1 expressing CHO cells, stimulated with 10 nM LPA; read-out: HLPA1 Ca Flux IC50
# Protocol: Establishment of a CHO Cell Line Stably Expressing Human LPA1
# A 1.1 kb cDNA encoding the human LPA1 receptor was cloned from human lung.
# Human lung RNA (Clontech Laboratories, Inc. USA) was reverse transcribed using the RETROscript kit (Ambion, Inc.) and the full-length cDNA for human LPA1 was obtained by PCR of the reverse transcription reaction. The nucleotide sequence of the cloned human LPA1 was determined by sequencing and confirmed to be identical to the published human LPA1 sequence (An et al. Biochem. Biophys. Res. Commun. 231:619 (1997). The cDNA was cloned into the pcDNA5/FRT expression plasmid and transfected in CHO cells using lipofectamine 2000 (Invitrogen Corp., USA). Clones stably expressing human LPA1 were selected using hygromycin and identified as cells that show Ca-influx in response to LPA.
# LPA1 and LPA3 Calcium Flux Assays
# Human LPA1 or LPA3 expressing CHO cells are seeded at 20,000-45,000 cells per well in a 96-well poly-D-lysine coated plate one or two days before the assay. Prior to the assay, the cells are washed once with PBS and then cultured in serum-free media overnight. On the day of the assay, a calcium indicator dye (Calcium 4, Molecular Devices) in assay buffer (HBSS with Ca^2+ and Mg^2+ and containing 20 mM Hepes and 0.3% fatty-acid free human serum albumin) is added to each well and incubation continued for 1 hour at 37° C. 10 μl of test compounds in 2.5% DMSO are added to the cells and incubation continued at room temperature for 30 minutes. Cells are the stimulated by the addition of 10 nM LPA and intracellular Ca^2+ measured using the Flexstation 3 (Molecular Devices). IC50s are determined using Graphpad prism analysis of drug titration curves.
# T1 sequence (Q92633 whole entry): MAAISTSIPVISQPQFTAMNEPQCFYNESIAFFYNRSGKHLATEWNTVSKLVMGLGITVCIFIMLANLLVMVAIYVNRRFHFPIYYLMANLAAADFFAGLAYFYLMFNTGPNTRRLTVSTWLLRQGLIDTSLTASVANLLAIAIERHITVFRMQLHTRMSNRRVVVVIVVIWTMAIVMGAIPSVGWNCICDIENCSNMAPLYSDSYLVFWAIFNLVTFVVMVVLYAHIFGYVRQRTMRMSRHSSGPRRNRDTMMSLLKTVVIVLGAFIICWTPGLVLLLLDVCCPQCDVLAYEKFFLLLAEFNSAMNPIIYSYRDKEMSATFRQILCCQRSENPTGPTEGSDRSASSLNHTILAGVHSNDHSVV
row,IC50,Compound
1,< 300 nM,"Cc1noc(-c2ccc(-c3ccc(C4(C(=O)O)CC4)cc3)cc2)c1Nc1cccc(OCc2ccccc2)n1 [Compound 1-125, 1-{4′-[4-(6-Benzyloxy-pyridin-2-ylamino)-3-methyl-isoxazol-5-yl]-biphenyl-4-yl}-cyclopropanecarboxylic acid]"
2,< 300 nM,"Cc1noc(-c2ccc(-c3ccc(C4(C(=O)O)CC4)cc3)cc2)c1Nc1cccc(-c2cccc(Cl)c2Cl)n1 [Compound 1-158, 1-(4′-{4-[6-(2,3-Dichloro-phenyl)-pyridin-2-ylamino]-3-methyl-isoxazol-5-yl}-biphenyl-4-yl)-cyclopropanecarboxylic acid]"
3,< 300 nM,"Cc1noc(-c2ccc(-c3ccc(C4(C(=O)NS(C)(=O)=O)CC4)cc3)cc2)c1C(O)c1cn(Cc2ccccc2)nn1 (single isomer, unassigned) [Compound 3-1, N-[1-(4′-{4-[(1-Benzyl-1H-[1,2,3]triazol-4-yl)-hydroxy-methyl]-3-methyl-isoxazol-5-yl}-biphenyl-4-yl)-cyclopropanecarbonyl]-methanesulfonamide]"
4,< 300 nM,"COc1c(F)cccc1-c1cccc(Nc2c(C)noc2-c2ccc(-c3ccc(C4(C(=O)O)CC4)cc3)cc2)n1 [Compound 1-159, 1-(4′-{4-[6-(3-Fluoro-2-methoxy-phenyl)-pyridin-2-ylamino]-3-methyl-isoxazol-5-yl}-biphenyl-4-yl)-cyclopropanecarboxylic acid]"
5,< 300 nM,"Cc1noc(-c2ccc(-c3ccc(C4(C(=O)O)CC4)cc3)cc2)c1Nc1cccc(-c2cccc(F)c2C)n1 [Compound 1-156, 1-(4′-{4-[6-(3-Fluoro-2-methyl-phenyl)-pyridin-2-ylamino]-3-methyl-isoxazol-5-yl}-biphenyl-4-yl)-cyclopropanecarboxylic acid]"
6,< 300 nM,"Cc1noc(-c2ccc(-c3ccc(C4(C(=O)O)CC4)cc3)cc2)c1Nc1cncc(-c2cccc(F)c2Cl)c1 [Compound 1-155, 1-(4′-{4-[5-(2-Chloro-3-fluoro-phenyl)-pyridin-3-ylamino]-3-methyl-isoxazol-5-yl}-biphenyl-4-yl)-cyclopropanecarboxylic acid]"
7,1000 to 50000 nM,"Cc1noc(-c2ccc(-c3ccc(C4(C(=O)O)CC4)cc3)cc2)c1Nc1cccc(-c2nn[nH]n2)n1 [Compound 1-149, 1-(4′-{3-Methyl-4-[6-(2H-tetrazol-5-yl)-pyridin-2-ylamino]-isoxazol-5-yl}-biphenyl-4-yl)-cyclopropanecarboxylic acid]"
8,< 300 nM,"Cc1noc(-c2ccc(-c3ccc(C4(C(=O)O)CC4)cc3)cc2)c1Nc1cccc(OC2CCCCC2)n1 [Compound 1-138, 1-{4′-[4-(6-Cyclohexyloxy-pyridin-2-ylamino)-3-methyl-isoxazol-5-yl]-biphenyl-4-yl}-cyclopropanecarboxylic acid]"

# The remaining lines, values behind:
row,Compound,IC50
1,"Cc1ccccc1N1CCN(C(=O)c2c(C)noc2-c2ccc(-c3ccc(C4(C(=O)O)CC4)cc3)cc2)CC1 [Compound 1-2, 1-{4′-[3-Methyl-4-(4-o-tolyl-piperazine-1-carbonyl)-isoxazol-5-yl]-biphenyl-4-yl}-cyclopropanecarboxylic acid]",1000 to 50000 nM
2,"Cc1noc(-c2ccc(-c3ccc(C4(C(=O)O)CC4)cc3)cc2)c1N(c1cccc(Cc2ccccc2)n1)c1cccc(Cc2ccccc2)n1 [Compound 1-120, 1-(4′-{4-[Bis-(6-benzyl-pyridin-2-yl)-amino]-3-methyl-isoxazol-5-yl}-biphenyl-4-yl)-cyclopropanecarboxylic acid]",1000 to 50000 nM
3,"Cc1noc(-c2ccc(-c3ccc(C4(C(=O)O)CC4)cc3)cc2)c1C(O)c1cccc(-c2ccccc2)n1 (stereo not drawn) [Compound 1-110, 1-(4′-{4-[Hydroxy-(6-phenyl-pyridin-2-yl)-methyl]-3-methyl-isoxazol-5-yl}-biphenyl-4-yl)-cyclopropanecarboxylic acid]",< 300 nM
4,"Cc1noc(-c2ccc(-c3ccc(C4(C(=O)O)CC4)cc3)cc2)c1C1CC1C(=O)N(C)[C@H](C)c1ccccc1 (single isomer, unassigned) [Compound 1-27]",300 to 1000 nM
5,"Cc1noc(-c2ccc(-c3ccc(C4(C(=O)O)CC4)cc3)cc2)c1CN1C(=O)O[C@@H](c2ccccc2)[C@H]1C [Compound 1-15, 1-{4′-[3-Methyl-4-((4R,5S)-4-methyl-2-oxo-5-phenyl-oxazolidin-3-ylmethyl)-isoxazol-5-yl]-biphenyl-4-yl}-cyclopropanecarboxylic acid]",300 to 1000 nM
6,"Cc1noc(-c2ccc(-c3ccc(C4(CC(=O)O)CC4)cc3)cc2)c1NC(C)Cc1ccc(OCc2ccc(C(F)(F)F)cc2)cc1 (stereo not drawn) [Compound 1-45, {1-[4′-(3-Methyl-4-{1-methyl-2-[4-(4-trifluoromethyl-benzyloxy)-phenyl]-ethylamino}-isoxazol-5-yl)-biphenyl-4-yl]-cyclopropyl}-acetic acid]",300 to 1000 nM
7,"Cc1noc(-c2ccc(-c3ccc(C4(C(=O)O)CC4)cc3)cc2)c1Nc1cccc(-c2cccnc2)c1 [Compound 1-103, 1-{4′-[3-Methyl-4-(3-pyridin-3-yl-phenylamino)-isoxazol-5-yl]-biphenyl-4-yl}-cyclopropanecarboxylic acid]",< 300 nM
8,"Cc1noc(-c2ccc(-c3ccc(C4(C(=O)O)CC4)cc3)cc2)c1Nc1ccc(-c2ccccc2)cc1 [Compound 1-75, 1-{4′-[4-(Biphenyl-4-ylamino)-3-methyl-isoxazol-5-yl]-biphenyl-4-yl}-cyclopropanecarboxylic acid]",300 to 1000 nM
9,"Cc1noc(-c2ccc(-c3ccc(C4(C(=O)O)CC4)cc3)cc2)c1C(O)c1cn(Cc2ccccc2C(F)(F)F)nn1 (stereo not drawn) [Compound 1-56, 1-[4′-(4-{Hydroxy-[1-(2-trifluoromethyl-benzyl)-1H-[1,2,3]triazol-4-yl]-methyl}-3-methyl-isoxazol-5-yl)-biphenyl-4-yl]-cyclopropanecarboxylic acid]",1000 to 50000 nM
10,"Cc1noc(-c2ccc(-c3ccc(C4(C(=O)O)CC4)cc3)cc2)c1Nc1cccc(Oc2ccccc2)n1 [Compound 1-79, 1-{4′-[3-Methyl-4-(6-phenoxy-pyridin-2-ylamino)-isoxazol-5-yl]-biphenyl-4-yl}-cyclopropanecarboxylic acid]",< 300 nM
11,"Cc1noc(-c2ccc(-c3ccc(C4(C(=O)O)CC4)cc3)cc2)c1Cn1ccc(-c2ccc(Br)cc2)n1 [Compound 1-13, 1-(4′-{4-[3-(4-Bromo-phenyl)-pyrazol-1-ylmethyl]-3-methyl-isoxazol-5-yl}-biphenyl-4-yl)-cyclopropanecarboxylic acid]",1000 to 50000 nM
12,"Cc1noc(-c2ccc(-c3ccc(C4(C(=O)O)CC4)cc3)cc2)c1[C@@H](O)c1cn([C@H](C)c2ccccc2)nn1 [Compound 1-67, 1-[4′-(4-{(R)-Hydroxy-[1-((R)-1-phenyl-ethyl)-1H-[1,2,3]triazol-4-yl]-methyl}-3-methyl-isoxazol-5-yl)-biphenyl-4-yl]-cyclopropanecarboxylic acid]",< 300 nM
13,"Cc1noc(-c2ccc(-c3ccc(C4(C(=O)O)CC4)cc3)cc2)c1CN1C(=O)OC[C@@H]1Cc1ccccc1 [Compound 1-12, 1-{4′-[4-((S)-4-Benzyl-2-oxo-oxazolidin-3-ylmethyl)-3-methyl-isoxazol-5-yl]-biphenyl-4-yl}-cyclopropanecarboxylic acid]",> 50000 nM
14,"Cc1noc(-c2ccc(-c3ccc(C4(C(=O)O)CC4)cc3)cc2)c1CN1CC(c2ccccc2)OC1=O (stereo not drawn) [Compound 1-22, 1-{4′-[3-Methyl-4-(2-oxo-5-phenyl-oxazolidin-3-ylmethyl)-isoxazol-5-yl]-biphenyl-4-yl}-cyclopropanecarboxylic acid]",< 300 nM
15,"Cc1noc(-c2ccc(-c3ccc(C4(C(=O)O)CC4)cc3)cc2)c1Nc1ccnc(-c2cccc(F)c2)c1 [Compound 1-112, 1-(4′-{4-[2-(3-Fluoro-phenyl)-pyridin-4-ylamino]-3-methyl-isoxazol-5-yl}-biphenyl-4-yl)-cyclopropanecarboxylic acid]",1000 to 50000 nM
16,"Cc1noc(-c2ccc(-c3ccc(C4(C(=O)O)CC4)cc3)cc2)c1C(O)c1cccc(Cc2ccccc2)n1 (stereo not drawn) [Compound 1-69, 1-(4′-{4-[(6-Benzyl-pyridin-2-yl)-hydroxy-methyl]-3-methyl-isoxazol-5-yl}-biphenyl-4-yl)-cyclopropanecarboxylic acid]",< 300 nM
17,"Cc1noc(-c2ccc(-c3ccc(C4(C(=O)O)CC4)cc3)cc2)c1Cn1nncc1-c1ccccc1 [Compound 1-20, 1-{4′-[3-Methyl-4-(5-phenyl-[1,2,3]triazol-1-ylmethyl)-isoxazol-5-yl]-biphenyl-4-yl}-cyclopropanecarboxylic acid]",300 to 1000 nM
18,"Cc1noc(-c2ccc(-c3ccc(CCC(=O)O)cc3)cc2)c1C(O)c1cn(Cc2cccc(C(F)(F)F)c2)nn1 (stereo not drawn) [Compound 1-52, 3-[4′-(4-{Hydroxy-[1-(3-trifluoromethyl-benzyl)-1H-[1,2,3]triazol-4-yl]-methyl}-3-methyl-isoxazol-5-yl)-biphenyl-4-yl]propionic acid]",1000 to 50000 nM
19,"Cc1noc(-c2ccc(-c3ccc(C4(C(=O)O)CC4)cc3)cc2)c1CN1CCCC(c2ccccc2)C1 (stereo not drawn) [Compound 1-18, 1-{4′-[3-Methyl-4-(3-phenyl-piperidin-1-ylmethyl)-isoxazol-5-yl]-biphenyl-4-yl}-cyclopropanecarboxylic acid]",< 300 nM

# Reference: patent US8664220B2, “Polycyclic compounds as lysophosphatidic acid receptor antagonists” (Amira Pharmaceuticals, Inc., priority 2009, dated 2014)
